In patent US11066392B2, “Inhibitors of indoleamine 2,3-dioxygenase and methods of their use” (BRISTOL-MYERS SQUIBB COMPANY, priority 2017, dated 2021):
Read-outs that look alike come from different tables or passages of the source.

Key:
human IDO1 = target: T1, human IDO1 (Homo sapiens, UniProt P14902); experiment: HEK293 cell-based indoleamine 2,3-dioxygenase (IDO) assay; conditions: human IDO1/HEK293 cells
T1 construct: expressed in transfected cells
Description: Assessment of inhibitor activity in HEK293 cell-based indoleamine 2,3-dioxygenase (IDO) assay.
HEK293 cells were transfected with a pCDNA-based mammalian expression vector harboring human IDO1 cDNA (NM 002164.2) by electroporation. They were cultured in medium (DMEM with 10% FBS) containing 1 mg/ml G418 for two weeks. Clones of HEK293 cells that stably expressed human IDO1 protein were selected and expanded for IDO inhibition assay.
The human IDO1/HEK293 cells were seeded at 10,000 cells per 50 μL per well with RPMI/phenol red free media contains 10% FBS in a 384-well black wall clear bottom tissue culture plate (Matrix Technologies LLC) 100 nL of certain concentration of compound was then added to each well using ECHO liquid handling systems. The cells were incubated for 20 hours in 37° C. incubator with 5% CO2.
The compound treatments were stopped by adding trichloroacetic acid (Sigma-Aldrich) to a final concentration at 0.2%. The cell plate was further incubated at 50° C. for 30 minute. The equal volume supernatant (20 μL) and 0.2% (w/v) Ehrlich reagent (4-dimethylaminobenzaldehyde, Sigma-Aldrich) in glacial acetic acid were mixed in a new clear bottom 384-well plate. This plate was then incubated at room temperature for 30 minute. The absorbance at 490 nm was measured on Envision plate reader.
Compound IC50 values were calculated using the counts of 500 nM of a reference standard treatment as one hundred percent inhibition, and counts of no compound but DMSO treatment as zero percent inhibition.
Activity for compounds described herein is provided in Table 1, wherein potency levels are provided as follows: (Potency: IDO IC50: A<0.01 μM; B<0.1 μM; C<10 μM)

[1] = target: indoleamine 2,3-dioxygenase (IDO) (Homo sapiens, UniProt P14902); experiment: HeLa cell-based indoleamine 2,3-dioxygenase (IDO) assay (kynurenine production, IFNγ-stimulated); conditions: HeLa cells
Chain of indoleamine 2,3-dioxygenase (IDO) (P14902 whole entry): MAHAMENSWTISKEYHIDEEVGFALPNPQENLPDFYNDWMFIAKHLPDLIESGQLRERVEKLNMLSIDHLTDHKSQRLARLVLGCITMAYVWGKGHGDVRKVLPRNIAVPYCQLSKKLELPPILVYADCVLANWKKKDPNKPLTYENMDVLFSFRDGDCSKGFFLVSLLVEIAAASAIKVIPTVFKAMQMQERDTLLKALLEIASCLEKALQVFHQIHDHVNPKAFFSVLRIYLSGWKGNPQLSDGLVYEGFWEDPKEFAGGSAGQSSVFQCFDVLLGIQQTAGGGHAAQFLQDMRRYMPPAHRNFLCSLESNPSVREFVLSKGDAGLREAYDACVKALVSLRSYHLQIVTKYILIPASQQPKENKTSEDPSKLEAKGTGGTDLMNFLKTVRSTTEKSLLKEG

[2] = potency class, read-out: Patent Potency Hela IC50 A < 10 nM, B > 10 nM, C > 100 nM
[3] = 20 hours incubation, read-out: IDO1 HEK Human IC50
[4] = IFNγ 25 ng/mL, 48 hour incubation, read-out: IDO Hela IC50

T1 sequence (P14902 whole entry): as above

| IC50 (human IDO1; potency class, read-out: Patent Potency HEK IC50 A < 10 nM, B > 10 nM, C > 100 nM) [nM] | IC50 [1, 2] [nM] | IC50 (human IDO1; [3]) [nM] | IC50 [1, 4] [nM] | Structure (SMILES) |
| --- | --- | --- | --- | --- |
| < 10 | < 10 | – | – | CC[C@@H](NC(=O)c1ccc(OC)nc1)[C@H]1CC[C@@H](c2ccnc3ccc(F)cc32)CC1 (single isomer, unassigned) [Example 10b, N-(1-(4-(6-Fluoroquinolin-4-yl)cyclohexyl)propyl)-6-methoxynicotinamide] |
| – | – | 56 | 30 | COc1ccc(-c2ccc(C(=O)N[C@H](C)[C@H]3CC[C@@H](c4ccnc5ccc(F)cc54)CC3)cn2)cn1 [Example 1, N—((R)-1-((1s,4s)-4-(6-Fluoroquinolin-4-yl)cyclohexyl)ethyl)-6′-methoxy-2,3′-bipyridine-5-carboxamide] |
| – | < 10 | 1 | – | COc1ccc(C(=O)N[C@H](C)[C@H]2CC[C@@H](c3ccnc4ccc(F)cc43)CC2)cn1 [Example 2, N-((R)-1-((1s,4S)-4-(6-Fluoroquinolin-4-yl)cyclohexyl)ethyl)-6-methoxynicotinamide] |
| – | – | 11 | 10 | C[C@@H](NC(=O)c1ccc(-n2cccn2)nc1)[C@H]1CC[C@@H](c2ccnc3ccc(F)cc32)CC1 [Example 4, N-((R)-1-((1s,4S)-4-(6-Fluoroquinolin-4-yl)cyclohexyl)ethyl)-6-(1H-pyrazol-1-yl)nicotinamide] |
| – | < 10 | 10 | – | C[C@@H](NC(=O)c1ccc(Cl)nc1)[C@H]1CC[C@@H](c2ccnc3ccc(F)cc32)CC1 [Example 5, 6-Chloro-N-((R)-1-((1s,4S)-4-(6-fluoroquinolin-4-yl)cyclohexyl)ethyl)nicotinamide] |
| – | – | 5 | 10 | C[C@@H](NC(=O)c1ccc(F)nc1)[C@H]1CC[C@@H](c2ccnc3ccc(F)cc32)CC1 [Example 7, 6-Fluoro-N-((R)-1-((1s,4S)-4-(6-fluoroquinolin-4-yl)cyclohexyl)ethyl)nicotinamide] |
| – | – | 5 | 10 | COc1ncc(C(=O)N[C@H](C)[C@H]2CC[C@@H](c3ccnc4ccc(F)cc43)CC2)cn1 [Example 8, N-((R)-1-((1s,4S)-4-(6-Fluoroquinolin-4-yl)cyclohexyl)ethyl)-2-methoxypyrimidine-5-carboxamide] |
| – | – | 28 | – | Cc1ncc(C(=O)N[C@H](C)[C@H]2CC[C@@H](c3ccnc4ccc(F)cc43)CC2)cn1 [Example 9, N-((R)-1-((1s,4S)-4-(6-Fluoroquinolin-4-yl)cyclohexyl)ethyl)-2-methylpyrimidine-5-carboxamide] |
| – | – | 10 | 10 | C[C@@H](NC(=O)c1cccnc1)[C@H]1CC[C@@H](c2ccnc3ccc(F)cc32)CC1 [Example 33, N—((R)-1-((cis)-4-(6-fluoroquinolin-4-yl)cyclohexyl)ethyl)nicotinamide] |
| – | – | 13 | 10 | C[C@@H](NC(=O)c1ccncc1)[C@H]1CC[C@@H](c2ccnc3ccc(F)cc32)CC1 [Example 34, N-((R)-1-((cis)-4-(6-fluoroquinolin-4-yl)cyclohexyl)ethyl)isonicotinamide] |
| – | – | 22 | 10 | C[C@@H](NC(=O)c1cnccn1)[C@H]1CC[C@@H](c2ccnc3ccc(F)cc32)CC1 [Example 35, N-((R)-1-((cis)-4-(6-fluoroquinolin-4-yl)cyclohexyl)ethyl)pyrazine-2-carboxamide] |
| – | – | 39 | 30 | C[C@@H](NC(=O)c1cncnc1)[C@H]1CC[C@@H](c2ccnc3ccc(F)cc32)CC1 [Example 36, N-((R)-1-((cis)-4-(6-fluoroquinolin-4-yl)cyclohexyl)ethyl)pyrimidine-5-carboxamide] |
